Test results: patent US6441168B1, “Stable crystalline salts of 5-methyltetrahydrofolic acid” (Eprova AG, priority 1999, dated 2002)
Read-outs that look alike come from different tables or passages of the source.

Assays:
[1] = in air, 25° C., 60% relative humidity
Protocol: The content of 5-methyltetrahydrofolic acid salt which is quoted in the examples was s determined by HPLC in each case and is given as % area. The water content was determined by a Karl Fischer method.
In order to determine the stabilities of the crystalline salts of 5-methyltetrahydrofolic acid, the substances were stored, together with comparison specimens, in air at 25° C. and at 60% relative humidity. The content of 5-methyltetrahydrofolic acid salt remaining was measured at periodic intervals and is given by comparison with the initial value.

Row | Compound | content of 5-methyltetrahydrofolic acid salt remaining, compared with the initial value ([1]; storage 0 months) | content of 5-methyltetrahydrofolic acid salt remaining, compared with the initial value ([1]; storage 12 months) | content of 5-methyltetrahydrofolic acid salt remaining, compared with the initial value ([1]; storage 3 months) | content of 5-methyltetrahydrofolic acid salt remaining, compared with the initial value ([1]; storage 6 months) | content of 5-methyltetrahydrofolic acid salt remaining, compared with the initial value ([1]; storage 18 months) | content of 5-methyltetrahydrofolic acid salt remaining, compared with the initial value ([1]; storage 88 months) | Solubility at 20° C. in 0.9% NaCl | Solubility at 20° C. in water
1 | CN1c2c([nH]c(N)nc2=O)NC[C@@H]1CNc1ccc(C(=O)N[C@@H](CCC(=O)[O-])C(=O)[O-])cc1.[Ca+2] [Amorphous calcium salt of 5-methyl-(6S)-tetrahydrofolic acid] [reference compound] | 100% | 84.2% | – | – | – | – | – | –
2 | CN1c2c([nH]c(N)nc2=O)NC[C@@H]1CNc1ccc(C(=O)N[C@@H](CCC(=O)[O-])C(=O)[O-])cc1.[Ca+2] [Crystalline calcium salt of 5-methyl-(6S)-tetrahydrofolic ac] [calcium salt of 5-methyl-(6S)-tetrahydrofolic acid] | 100% | 99.1% | 98.6% | 98.7% | 99.0% | 97.8% | – | –
3 | CN1c2c([nH]c(N)nc2=O)NC[C@@H]1CNc1ccc(C(=O)N[C@@H](CCC(=O)[O-])C(=O)[O-])cc1.[Ca+2] [Type I, calcium salt of 5-methyl-(6S)-tetrahydrofolic acid] | – | – | – | – | – | – | 1.6% | 1.1%
4 | CN1c2c([nH]c(N)nc2=O)NC[C@@H]1CNc1ccc(C(=O)N[C@@H](CCC(=O)[O-])C(=O)[O-])cc1.[Ca+2] [Type II, calcium salt of 5-methyl-(6S)-tetrahydrofolic acid] | – | – | – | – | – | – | 5.8% | 3.8%
5 | CN1c2c([nH]c(N)nc2=O)NC[C@@H]1CNc1ccc(C(=O)N[C@@H](CCC(=O)[O-])C(=O)[O-])cc1.[Ca+2] [Type III, calcium salt of 5-methyl-(6S)-tetrahydrofolic acid] | – | – | – | – | – | – | 1.5% | 1.0%
